Starred links: 1 amine or outer side, 2 acyl side, 3 side chain; linkers in the order of their positions; H or OH if unused. Positions of bridges follow the written chain, without caps; N, C: chain ends. Non-standard residues stand in square brackets, D forms with d. Residues, ends and D or L forms follow the SMILES beside them. Groups on a side chain read outwards from the residue. *: point of attachment. Chenodeoxycholyl = C[C@H](CCC(=O)*)[C@H]1CC[C@H]2[C@@H]3[C@H](O)C[C@@H]4C[C@H](O)CC[C@]4(C)[C@H]3CC[C@]12C; Ursodeoxycholyl = C[C@H](CCC(=O)*)[C@H]1CC[C@H]2[C@@H]3[C@@H](O)C[C@@H]4C[C@H](O)CC[C@]4(C)[C@H]3CC[C@]12C; Cholyl = C[C@H](CCC(=O)*)[C@H]1CC[C@H]2[C@@H]3[C@H](O)C[C@@H]4C[C@H](O)CC[C@]4(C)[C@H]3C[C@H](O)[C@]12C; Deoxycholoyl = C[C@H](CCC(=O)*)[C@H]1CC[C@H]2[C@@H]3CC[C@@H]4C[C@H](O)CC[C@]4(C)[C@H]3C[C@H](O)[C@]12C; Lithocholoyl = C[C@H](CCC(=O)*)[C@H]1CC[C@H]2[C@@H]3CC[C@@H]4C[C@H](O)CC[C@]4(C)[C@H]3CC[C@]12C; X36 = C[C@H](CCC(=O)*)[C@H]1CC[C@H]2[C@@H]3CC[C@@H]4C[C@H](O)CC[C@]4(C)[C@H]3CC(O)[C@]12C; Trp(1-CH2CO2Me) = COC(=O)Cn1cc(C[C@H](N)C(=O)O)c2ccccc21; X29 = CN(C)C(=O)Cn1cc(C[C@H](N[*:1])C(=O)[*:2])c2ccccc21; Trp(1-CH2COOH) = N[C@@H](Cc1cn(CC(=O)O)c2ccccc12)C(=O)O; Hyp = O=C(O)[C@@H]1C[C@@H](O)CN1; NMeNle = CCCC[C@H](NC)C(=O)O; NMeA = CN[C@@H](C)C(=O)O; Dab = NCC[C@H](N)C(=O)O; Dap = NC[C@H](N)C(=O)O
Target: T1, PD-1/PD-L1 (Homo sapiens, UniProt Q9NZQ7)
T1 construct: TVMV protease site (C); made in house; host or cells: HEK293T cells
Test: PD-1/PD-L1 Homogenous Time-Resolved Fluorescence (HTRF) binding assay
Settings: PD-L1-His 10 nM, PD-1-Ig 20 nM; read-out: HTRF IC50
Source text: The ability of the compounds of formula (I) to bind to PD-L1 was investigated using a PD-1/PD-L1 Homogenous Time-Resolved Fluorescence (HTRF) binding assay.
The interaction of PD-1 and PD-L1 can be assessed using soluble, purified preparations of the extracellular domains of the two proteins. The PD-1 and PD-L1 protein extracellular domains were expressed as fusion proteins with detection tags, for PD-1, the tag was the Fc portion of Immunoglobulin (PD-1-Ig) and for PD-L1 it was the 6 histidine motif (PD-L1-His). All binding studies were performed in an HTRF assay buffer consisting of dPBS supplemented with 0.1% […] bovine serum albumin and 0.05% (v/v) Tween-20. For the h/PD-L1-His binding assay, inhibitors were pre-incubated with PD-L1-His (10 nM final) for 15 m in 4 μl of assay buffer, followed by addition of PD-1-Ig (20 nM final) in 1 μl of assay buffer and further incubation for 15 m. HTRF detection was achieved using europium crypate-labeled anti-Ig (1 nM final) and allophycocyanin (APC) labeled anti-His (20 nM final). Antibodies were diluted in HTRF detection buffer and 5 μl was dispensed on top of the binding reaction. The reaction mixture was allowed to equilibrate for 30 minutes and the resulting signal (665 nm/620 nm ratio) was obtained using an EnVision fluorometer. Additional binding assays were established between the human proteins PD-1-Ig/PD-L2-His (20 & 5 nM, respectively) and CD80-His/PD-L1-Ig (100 & 10 nM, respectively).
Recombinant Proteins: Human PD-1 (25-167) with a C-terminal human Fc domain of immunoglobulin G (Ig) epitope tag [hPD-1 (25-167)-3S-IG] and human PD-L1 (18-239) with a C-terminal His epitope tag [hPD-L1(18-239)-TVMV-His] were expressed in HEK293T cells and purified sequentially by ProteinA affinity chromatography and size exclusion chromatography. Human PD-L2-His and CD80-His was obtained through commercial sources.
Table 1 lists the IC50 values for representative examples of this disclosure measured in the PD-1/PD-L1 Homogenous Time-Resolved Fluorescence (HTRF) binding assay.

T1 sequence (Q9NZQ7 18-239): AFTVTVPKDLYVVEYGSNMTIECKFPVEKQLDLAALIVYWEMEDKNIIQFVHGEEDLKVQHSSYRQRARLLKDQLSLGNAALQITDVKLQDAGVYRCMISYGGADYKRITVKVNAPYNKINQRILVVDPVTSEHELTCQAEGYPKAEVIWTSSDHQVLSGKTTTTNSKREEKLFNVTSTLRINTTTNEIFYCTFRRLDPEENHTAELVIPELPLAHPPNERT

SMILES	IC50 [nM]
CCCC[C@H]1C(=O)N(C)[C@@H](CCCC)C(=O)N[C@@H](CC(C)C)C(=O)N[C@H](C(=O)NCC(N)=O)CSCC(=O)N[C@@H](Cc2ccc(O)cc2)C(=O)N(C)[C@@H](C)C(=O)N[C@@H](CC(N)=O)C(=O)N2CCC[C@H]2C(=O)N[C@@H](CNC(=O)CC[C@@H](C)[C@H]2CC[C@H]3[C@@H]4CC[C@@H]5C[C@H](O)CC[C@]5(C)[C@H]4C[C@H](O)[C@]23C)C(=O)N[C@@H](CC(C)C)C(=O)N2C[C@H](O)C[C@H]2C(=O)N[C@@H](Cc2c[nH]c3ccccc23)C(=O)N[C@@H](CCNC(=O)CC[C@@H](C)[C@H]2CC[C@H]3[C@@H]4[C@H](O)C[C@@H]5C[C@H](O)CC[C@]5(C)[C@H]4CC[C@]23C)C(=O)N[C@@H](Cc2cn(CC(=O)OC)c3ccccc23)C(=O)N1C [Example 1001] ({CH2CO}-Y[NMeA]NP[Dap](Deoxycholoyl)L[Hyp]W[Dab](Chenodeoxycholyl)[Trp(1-CH2CO2Me)][NMeNle][NMeNle]LCG-NH2; thioether N-14)	9.5
CCCC[C@H]1C(=O)N(C)[C@@H](CCCC)C(=O)N[C@@H](CC(C)C)C(=O)N[C@H](C(=O)NCC(N)=O)CSCC(=O)N[C@@H](Cc2ccc(O)cc2)C(=O)N(C)[C@@H](C)C(=O)N[C@@H](CC(N)=O)C(=O)N2CCC[C@H]2C(=O)N[C@@H](CNC(=O)CC[C@@H](C)[C@H]2CC[C@H]3[C@@H]4CC[C@@H]5C[C@H](O)CC[C@]5(C)[C@H]4C[C@H](O)[C@]23C)C(=O)N[C@@H](CC(C)C)C(=O)N2C[C@H](O)C[C@H]2C(=O)N[C@@H](Cc2c[nH]c3ccccc23)C(=O)N[C@@H](CCNC(=O)CC[C@@H](C)[C@H]2CC[C@H]3[C@@H]4[C@H](O)C[C@@H]5C[C@H](O)CC[C@]5(C)[C@H]4CC[C@]23C)C(=O)N[C@@H](Cc2cn(CC(=O)O)c3ccccc23)C(=O)N1C [Example 1002] ({CH2CO}-Y[NMeA]NP[Dap](Deoxycholoyl)L[Hyp]W[Dab](Chenodeoxycholyl)[Trp(1-CH2COOH)][NMeNle][NMeNle]LCG-NH2; thioether N-14)	11
CCCC[C@H]1C(=O)N(C)[C@@H](CCCC)C(=O)N[C@@H](CC(C)C)C(=O)N[C@H](C(=O)NCC(N)=O)CSCC(=O)N[C@@H](Cc2ccc(O)cc2)C(=O)N(C)[C@@H](C)C(=O)N[C@@H](CC(N)=O)C(=O)N2CCC[C@H]2C(=O)N[C@@H](CNC(=O)CC[C@@H](C)[C@H]2CC[C@H]3[C@@H]4CC[C@@H]5C[C@H](O)CC[C@]5(C)[C@H]4C[C@H](O)[C@]23C)C(=O)N[C@@H](CC(C)C)C(=O)N2C[C@H](O)C[C@H]2C(=O)N[C@@H](Cc2c[nH]c3ccccc23)C(=O)N[C@@H](CCNC(=O)CC[C@@H](C)[C@H]2CC[C@H]3[C@@H]4CC[C@@H]5C[C@H](O)CC[C@]5(C)[C@H]4CC(O)[C@]23C)C(=O)N[C@@H](Cc2cn(CC(=O)OC)c3ccccc23)C(=O)N1C (stereo partly drawn) [Example 1003] ({CH2CO}-Y[NMeA]NP[Dap](Deoxycholoyl)L[Hyp]W[Dab](X36)[Trp(1-CH2CO2Me)][NMeNle][NMeNle]LCG-NH2; thioether N-14)	> 10000
CCCC[C@H]1C(=O)N(C)[C@@H](CCCC)C(=O)N[C@@H](CC(C)C)C(=O)N[C@H](C(=O)NCC(N)=O)CSCC(=O)N[C@@H](Cc2ccc(O)cc2)C(=O)N(C)[C@@H](C)C(=O)N[C@@H](CC(N)=O)C(=O)N2CCC[C@H]2C(=O)N[C@@H](CNC(=O)CC[C@@H](C)[C@H]2CC[C@H]3[C@@H]4CC[C@@H]5C[C@H](O)CC[C@]5(C)[C@H]4CC[C@]23C)C(=O)N[C@@H](CC(C)C)C(=O)N2C[C@H](O)C[C@H]2C(=O)N[C@@H](Cc2c[nH]c3ccccc23)C(=O)N[C@@H](CCNC(=O)CC[C@@H](C)[C@H]2CC[C@H]3[C@@H]4CC[C@@H]5C[C@H](O)CC[C@]5(C)[C@H]4CC[C@]23C)C(=O)N[C@@H](Cc2cn(CC(=O)OC)c3ccccc23)C(=O)N1C [Example 1004] ({CH2CO}-Y[NMeA]NP[Dap](Lithocholoyl)L[Hyp]W[Dab](Lithocholoyl)[Trp(1-CH2CO2Me)][NMeNle][NMeNle]LCG-NH2; thioether N-14)	> 10000
CCCC[C@H]1C(=O)N(C)[C@@H](CCCC)C(=O)N[C@@H](CC(C)C)C(=O)N[C@H](C(=O)NCC(N)=O)CSCC(=O)N[C@@H](Cc2ccc(O)cc2)C(=O)N(C)[C@@H](C)C(=O)N[C@@H](CC(N)=O)C(=O)N2CCC[C@H]2C(=O)N[C@@H](CNC(=O)CC[C@@H](C)[C@H]2CC[C@H]3[C@@H]4[C@H](O)C[C@@H]5C[C@H](O)CC[C@]5(C)[C@H]4CC[C@]23C)C(=O)N[C@@H](CC(C)C)C(=O)N2C[C@H](O)C[C@H]2C(=O)N[C@@H](Cc2c[nH]c3ccccc23)C(=O)N[C@@H](CCNC(=O)CC[C@@H](C)[C@H]2CC[C@H]3[C@@H]4[C@H](O)C[C@@H]5C[C@H](O)CC[C@]5(C)[C@H]4CC[C@]23C)C(=O)N[C@@H](Cc2cn(CC(=O)OC)c3ccccc23)C(=O)N1C [Example 1005] ({CH2CO}-Y[NMeA]NP[Dap](Chenodeoxycholyl)L[Hyp]W[Dab](Chenodeoxycholyl)[Trp(1-CH2CO2Me)][NMeNle][NMeNle]LCG-NH2; thioether N-14)	8400
CCCC[C@H]1C(=O)N(C)[C@@H](CCCC)C(=O)N[C@@H](CC(C)C)C(=O)N[C@H](C(=O)NCC(N)=O)CSCC(=O)N[C@@H](Cc2ccc(O)cc2)C(=O)N(C)[C@@H](C)C(=O)N[C@@H](CC(N)=O)C(=O)N2CCC[C@H]2C(=O)N[C@@H](CNC(=O)CC[C@@H](C)[C@H]2CC[C@H]3[C@@H]4[C@@H](O)C[C@@H]5C[C@H](O)CC[C@]5(C)[C@H]4CC[C@]23C)C(=O)N[C@@H](CC(C)C)C(=O)N2C[C@H](O)C[C@H]2C(=O)N[C@@H](Cc2c[nH]c3ccccc23)C(=O)N[C@@H](CCNC(=O)CC[C@@H](C)[C@H]2CC[C@H]3[C@@H]4[C@@H](O)C[C@@H]5C[C@H](O)CC[C@]5(C)[C@H]4CC[C@]23C)C(=O)N[C@@H](Cc2cn(CC(=O)OC)c3ccccc23)C(=O)N1C [Example 1006] ({CH2CO}-Y[NMeA]NP[Dap](Ursodeoxycholyl)L[Hyp]W[Dab](Ursodeoxycholyl)[Trp(1-CH2CO2Me)][NMeNle][NMeNle]LCG-NH2; thioether N-14)	> 10000
CCCC[C@H]1C(=O)N(C)[C@@H](CCCC)C(=O)N[C@@H](CC(C)C)C(=O)N[C@H](C(=O)NCC(N)=O)CSCC(=O)N[C@@H](Cc2ccc(O)cc2)C(=O)N(C)[C@@H](C)C(=O)N[C@@H](CC(N)=O)C(=O)N2CCC[C@H]2C(=O)N[C@@H](CNC(=O)CC[C@@H](C)[C@H]2CC[C@H]3[C@@H]4[C@H](O)C[C@@H]5C[C@H](O)CC[C@]5(C)[C@H]4C[C@H](O)[C@]23C)C(=O)N[C@@H](CC(C)C)C(=O)N2C[C@H](O)C[C@H]2C(=O)N[C@@H](Cc2c[nH]c3ccccc23)C(=O)N[C@@H](CCN)C(=O)N[C@@H](Cc2cn(CC(=O)OC)c3ccccc23)C(=O)N1C [Example 1007] ({CH2CO}-Y[NMeA]NP[Dap](Cholyl)L[Hyp]W[Dab][Trp(1-CH2CO2Me)][NMeNle][NMeNle]LCG-NH2; thioether N-14)	6.8
CCCC[C@H]1C(=O)N(C)[C@@H](CCCC)C(=O)N[C@@H](CC(C)C)C(=O)N[C@H](C(=O)NCC(N)=O)CSCC(=O)N[C@@H](Cc2ccc(O)cc2)C(=O)N(C)[C@@H](C)C(=O)N[C@@H](CC(N)=O)C(=O)N2CCC[C@H]2C(=O)N[C@@H](CNC(=O)CNC(=O)CC[C@@H](C)[C@H]2CC[C@H]3[C@@H]4[C@H](O)C[C@@H]5C[C@H](O)CC[C@]5(C)[C@H]4C[C@H](O)[C@]23C)C(=O)N[C@@H](CC(C)C)C(=O)N2C[C@H](O)C[C@H]2C(=O)N[C@@H](Cc2c[nH]c3ccccc23)C(=O)N[C@@H](CCN)C(=O)N[C@@H](Cc2cn(CC(=O)N(C)C)c3ccccc23)C(=O)N1C [Example 1008] ({CH2CO}-Y[NMeA]NP[Dap]([Gly-Cholyl])L[Hyp]W[Dab][X29][NMeNle][NMeNle]LCG-NH2; thioether N-14)	14
CCCC[C@H]1C(=O)N(C)[C@@H](CCCC)C(=O)N[C@@H](CC(C)C)C(=O)N[C@H](C(=O)NCC(N)=O)CSCC(=O)N[C@@H](Cc2ccc(O)cc2)C(=O)N(C)[C@@H](C)C(=O)N[C@@H](CC(N)=O)C(=O)N2CCC[C@H]2C(=O)N[C@@H](CNC(=O)CC[C@@H](C)[C@H]2CC[C@H]3[C@@H]4CC[C@@H]5C[C@H](O)CC[C@]5(C)[C@H]4CC[C@]23C)C(=O)N[C@@H](CC(C)C)C(=O)N2C[C@H](O)C[C@H]2C(=O)N[C@@H](Cc2c[nH]c3ccccc23)C(=O)N[C@@H](CCN)C(=O)N[C@@H](Cc2cn(CC(=O)O)c3ccccc23)C(=O)N1C [Example 1009] ({CH2CO}-Y[NMeA]NP[Dap](Lithocholoyl)L[Hyp]W[Dab][Trp(1-CH2COOH)][NMeNle][NMeNle]LCG-NH2; thioether N-14)	17

Source: patent US20230183292A1, “IMMUNOMODULATORS” (priority 2020, published 2023)
